In one assay the target is T1, p110α Type Ia human PI3K (Homo sapiens, UniProt P42336).
T1 construct: full length DNA of each of the p110α, p110β and p110δ Type Ia human PI3K p110 isoforms; 6-His; made in house
Nature of the assay: In vitro PI3K enzyme assay, Test (b)(i) (AlphaScreen). The assay is classed as biochemical. As to conditions: individual values, measured twice; read-out: IC50 versus p110α Type Ia human PI3K, Test (b)(i). An excerpt: (b)(i) In Vitro PI3K Enzyme Assay
In general terms: Alpha assays give light when donor and acceptor beads are brought close together.

Another assay concerns the target T2, mTOR kinase (Homo sapiens, UniProt P42345).
T2 construct: FLAG; made in house
Nature of the assay: In vitro mTOR kinase assay, Test (a)(i) (AlphaScreen). The assay is classed as biochemical. Here is the method: (a)(i) In Vitro mTOR Kinase Assay
A C-terminal truncation of mTOR encompassing amino acid residues 1362 to 2549 of mTOR (EMBL Accession No. L34075) was stably expressed as a FLAG-tagged fusion in HEK293 cells as described by Vilella-Bach et al., […], 1999, 274, 4266-4272. The HEK293 FLAG-tagged mTOR (1362-2549) stable cell line was routinely maintained at 37° C. with 5% CO2 up to a confluency of 70-90% in Dulbecco's modified Eagle's growth medium (DMEM; Invitrogen Limited, Paisley, UK Catalogue No. 41966-029) containing 10% heat-inactivated foetal calf serum (FCS; Sigma, Poole, Dorset, UK, Catalogue No. F0392), 1% L-glutamine (Gibco, Catalogue No. 25030-024) and 2 mg/ml Geneticin (G418 sulfate; Invitrogen Limited, UK Catalogue No. 10131-027). Following expression in the mammalian HEK293 cell line, expressed protein was purified using the FLAG epitope tag using standard purification techniques.
A 30 μl mixture of recombinant purified mTOR enzyme, 1 μM biotinylated peptide substrate (Biotin-Ahx-[…]NH2; Bachem UK Ltd), ATP (20 μM) and a buffer solution [comprising Tris-HCl pH7.4 buffer (50 mM), EGTA (0.1 mM), bovine serum albumin (0.5 mg/mL), DTT (1.25 mM) and manganese chloride (10 mM)] was agitated at room temperature for 90 minutes.
These assay solutions were incubated for 2 hours at room temperature.
Phosphorylated biotinylated peptide is formed in situ as a result of mTOR mediated phosphorylation. The phosphorylated biotinylated peptide that is associated with AlphaScreen Streptavidin donor beads forms a complex with the p70 S6 Kinase (T389) 1A5 Monoclonal Antibody that is associated with Alphascreen Protein A acceptor beads. […] Accordingly, the presence of mTOR kinase activity results in an assay signal. In the presence of an mTOR kinase inhibitor, signal strength is reduced.

The subject of the next assay is Serine 473 in Akt. Nature of the assay: In vitro phospho-Ser473 Akt assay, Test (c). As to conditions: MDA-MB-468 human breast adenocarcinoma cells, 2 hours; read-out: IC50 versus Serine 473 in Akt, Test (c). The assay is classed as cell-based. The protocol: (c) In Vitro Phospho-SeR473 Akt Assay
This assay determines the ability of test compounds to inhibit phosphorylation of Serine 473 in Akt as assessed using Acumen Explorer technology (Acumen Bioscience Limited), a plate reader that can be used to rapidly quantitate features of images generated by laser-scanning.
A MDA-MB-468 human breast adenocarcinoma cell line (LGC Promochem, Teddington, Middlesex, UK, Catalogue No. HTB-132) was routinely maintained at 37° C. with 5% CO2 up to a confluency of 70-90% in DMEM containing 10% heat-inactivated FCS and 1% L-glutamine.
For the assay, the cells were detached from the culture flask using ‘Accutase’ (Innovative Cell Technologies Inc., San Diego, Calif., USA; Catalogue No. AT104) using standard tissue culture methods and resuspended in media to give 1.7×10^5 cells per mL. […]
All subsequent aspiration and wash steps were carried out using a Tecan 96 well plate washer (aspiration speed 10 mm/sec). […] An aliquot of PBS (50 μl) was added to each well and the plates were sealed with black plate sealers and the fluorescence signal was detected and analysed.
Fluorescence dose response data obtained with each compound were analysed and the degree of inhibition of Serine 473 in Akt was expressed as an IC50 value.

Structures are written as SMILES. pIC50: −log10 of the molar value. Several values for one entry are separate records, joined by “and”; a condition that tells them apart may be missing. Identical values can stand only once. Like-named read-outs stand apart in the source and are kept apart here.

Broadly, the pIC50 is the negative decadic logarithm of the IC50, by convention in mol/L.

T2 sequence (P42345 1362-2549): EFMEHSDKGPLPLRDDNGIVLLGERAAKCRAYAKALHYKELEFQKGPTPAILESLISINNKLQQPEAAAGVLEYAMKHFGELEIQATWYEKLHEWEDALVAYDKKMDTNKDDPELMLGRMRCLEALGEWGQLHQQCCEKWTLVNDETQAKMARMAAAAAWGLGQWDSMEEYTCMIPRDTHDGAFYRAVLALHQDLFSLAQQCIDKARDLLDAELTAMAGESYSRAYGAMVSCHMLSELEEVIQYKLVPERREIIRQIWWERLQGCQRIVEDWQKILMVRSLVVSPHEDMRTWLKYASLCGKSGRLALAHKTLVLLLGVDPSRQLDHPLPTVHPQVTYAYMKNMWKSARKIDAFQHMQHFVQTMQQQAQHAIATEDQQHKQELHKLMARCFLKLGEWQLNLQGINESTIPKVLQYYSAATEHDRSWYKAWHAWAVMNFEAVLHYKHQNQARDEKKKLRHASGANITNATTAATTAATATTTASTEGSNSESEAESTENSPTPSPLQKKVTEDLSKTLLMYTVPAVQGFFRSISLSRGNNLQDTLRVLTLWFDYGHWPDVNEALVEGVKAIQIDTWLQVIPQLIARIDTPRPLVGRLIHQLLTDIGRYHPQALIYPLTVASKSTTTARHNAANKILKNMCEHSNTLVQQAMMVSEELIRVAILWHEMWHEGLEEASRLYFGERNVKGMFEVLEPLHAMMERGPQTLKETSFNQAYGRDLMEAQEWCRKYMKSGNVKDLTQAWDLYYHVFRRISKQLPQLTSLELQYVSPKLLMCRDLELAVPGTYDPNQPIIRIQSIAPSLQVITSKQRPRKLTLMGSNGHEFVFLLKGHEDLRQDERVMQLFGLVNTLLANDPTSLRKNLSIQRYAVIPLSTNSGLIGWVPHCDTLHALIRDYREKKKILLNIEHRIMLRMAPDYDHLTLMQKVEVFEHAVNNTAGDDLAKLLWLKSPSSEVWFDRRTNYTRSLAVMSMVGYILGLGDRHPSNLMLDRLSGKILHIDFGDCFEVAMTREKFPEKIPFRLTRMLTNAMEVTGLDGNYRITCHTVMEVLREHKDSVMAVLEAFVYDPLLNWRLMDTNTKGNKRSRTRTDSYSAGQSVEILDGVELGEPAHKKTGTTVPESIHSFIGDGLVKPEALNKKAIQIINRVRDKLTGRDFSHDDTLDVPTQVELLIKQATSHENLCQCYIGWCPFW
T1 sequence (P42336 whole entry, canonical isoform): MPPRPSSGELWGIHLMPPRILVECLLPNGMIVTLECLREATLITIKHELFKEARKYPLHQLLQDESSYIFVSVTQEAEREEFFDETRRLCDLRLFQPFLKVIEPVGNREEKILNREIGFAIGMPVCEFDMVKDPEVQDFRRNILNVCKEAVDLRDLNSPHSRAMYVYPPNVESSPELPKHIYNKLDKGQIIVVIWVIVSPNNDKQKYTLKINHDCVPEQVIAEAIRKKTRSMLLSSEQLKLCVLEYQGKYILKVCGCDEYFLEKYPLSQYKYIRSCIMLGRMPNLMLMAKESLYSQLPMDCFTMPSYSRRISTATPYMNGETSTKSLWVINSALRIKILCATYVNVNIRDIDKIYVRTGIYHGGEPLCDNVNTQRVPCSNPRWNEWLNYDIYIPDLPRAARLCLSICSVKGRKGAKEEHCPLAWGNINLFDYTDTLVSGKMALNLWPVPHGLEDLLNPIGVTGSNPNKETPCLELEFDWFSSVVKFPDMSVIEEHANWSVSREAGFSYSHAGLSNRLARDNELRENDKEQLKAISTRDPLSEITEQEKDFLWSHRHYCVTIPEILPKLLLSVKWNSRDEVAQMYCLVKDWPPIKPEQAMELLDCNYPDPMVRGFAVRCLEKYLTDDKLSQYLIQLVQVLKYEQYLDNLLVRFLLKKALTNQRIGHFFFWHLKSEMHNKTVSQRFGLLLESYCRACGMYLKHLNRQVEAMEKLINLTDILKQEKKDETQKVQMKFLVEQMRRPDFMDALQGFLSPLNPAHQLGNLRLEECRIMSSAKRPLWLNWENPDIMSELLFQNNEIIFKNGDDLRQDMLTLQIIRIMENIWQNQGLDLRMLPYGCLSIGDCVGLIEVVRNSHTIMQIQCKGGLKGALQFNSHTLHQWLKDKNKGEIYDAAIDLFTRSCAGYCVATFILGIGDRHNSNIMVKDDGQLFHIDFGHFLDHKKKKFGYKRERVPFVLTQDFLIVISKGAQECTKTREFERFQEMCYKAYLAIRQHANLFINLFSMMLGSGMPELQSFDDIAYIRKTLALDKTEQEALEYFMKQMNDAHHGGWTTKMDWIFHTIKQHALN
T1 sequence (P27986 whole entry partner, canonical isoform): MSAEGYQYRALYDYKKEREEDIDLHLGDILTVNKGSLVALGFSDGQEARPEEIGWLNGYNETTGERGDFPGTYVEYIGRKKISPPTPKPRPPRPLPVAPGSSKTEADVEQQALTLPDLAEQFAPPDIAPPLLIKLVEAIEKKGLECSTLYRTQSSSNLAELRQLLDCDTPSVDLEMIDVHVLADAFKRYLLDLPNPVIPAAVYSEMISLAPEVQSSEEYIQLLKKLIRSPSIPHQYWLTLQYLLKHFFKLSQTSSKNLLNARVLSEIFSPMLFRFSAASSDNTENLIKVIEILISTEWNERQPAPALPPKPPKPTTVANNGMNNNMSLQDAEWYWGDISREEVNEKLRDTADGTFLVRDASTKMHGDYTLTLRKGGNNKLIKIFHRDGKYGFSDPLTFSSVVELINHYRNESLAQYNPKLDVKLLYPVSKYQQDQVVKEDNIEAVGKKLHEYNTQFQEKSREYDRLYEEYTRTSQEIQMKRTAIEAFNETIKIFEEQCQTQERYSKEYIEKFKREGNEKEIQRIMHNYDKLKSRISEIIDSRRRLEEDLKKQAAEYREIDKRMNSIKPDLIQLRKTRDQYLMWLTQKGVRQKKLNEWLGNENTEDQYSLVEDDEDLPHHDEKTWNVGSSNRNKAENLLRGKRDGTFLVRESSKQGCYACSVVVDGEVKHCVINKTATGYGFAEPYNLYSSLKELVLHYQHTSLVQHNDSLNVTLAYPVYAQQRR

Regarding `CN(C)CC(=O)Nc1ccc(-c2nc(CS(C)(=O)=O)cc(N3CCOCC3)n2)cc1` [Example 5p, 2-dimethylamino-N-[4-[4-(methylsulfonylmethyl)-6-morpholin-4-yl-pyrimidin-2-yl]phenyl]acetamide], the pIC50 was 4.03 and 4.29 on p110α Type Ia human PI3K; 5.61 and 5.79 at mTOR kinase (individual values, measured twice, read-out: IC50 versus mTOR kinase, Test (a)(i)); 5.70 on mTOR kinase (recombinant FLAG-tagged mTOR (1362-2549), ATP 20 μM, read-out: Test (a)(i) IC50); 5.11 in the assay on Serine 473 in Akt.

(Values after patent publication US20100261723A1, “TRISUBSTITUTED PYRIMIDINE DERIVATIVES FOR THE TREATMENT OF PROLIFERATIVE DISEASES” (ASTRAZENECA AB, priority 2007, published 2010).)
